Literature values in patent US10215758B2, “Platinum-labeled probes for mass cytometry” (priority 2015, dated 2019).

Conditions: human, in vivo; cited from earlier work

N.N.[Cl][Pt][Cl] [cisplatin, cis-diamminedichloroplatinum(II)]
binding to serum protein: most cisplatin binds to serum protein within hours
